Test [1] relates to human T-cells. The experiment in a line: Suppression of Human T-Cell Proliferation Assay (PHA-stimulated, [3H]-thymidine incorporation). The class given is cell-based. The conditions noted are these: read-out: IC50. From the text: 2) Human T Lymphocyte Inhibition
Inhibition of mitogen-induced T-cell proliferation can be used to profile immunosuppressive activity of test compounds. In the description of the assay which follows, mitogen-induced T-cell activation was used to test the inhibitory potencies of select compounds of the present invention.
In an assay similar to that described by Bradley in Mishell et al. (Eds.), 1980, Selected Methods in Cellular Immunology, pp 156-161, W. H. Freeman & Co., San Fransisco, Calif., T-cells were stimulated by incubation with phytohemagglutinin (PHA) which binds to cell surface molecules, including the T-cell receptor. This stimulation results in proliferation which can be measured by incorporation of [^3 H]-thymidine into cellular DNA.
The immunosuppressive properties of the compounds of the present invention can be determined by adding various concentrations of the compounds to these cultures and measuring the effect on T-cell proliferation.
Suppression of Human T-Cell Proliferation Assay
Fresh LeukoPaks were obtained from the New York Blood Center, New York, N.Y. The cells, including erythrocytes and leukocytes, were diluted with Hank's Balanced Salt Solution (HBSS) (GIBCO, Grand Island, N.Y.) and layered over Lymphoprep (Nycomed Pharma AS, Oslo, Norway) in sterile 50 ml conical centrifuge tubes. Lymphocytes were isolated at the Hank's/Nycomed interface after centrifugation at 2000×g, 4° C. for 15 min. The lymphocytes were washed with Minimal Essential Medium (GIBCO) containing 2% fetal bovine serum (FBS) (Sigma Chemical Co., St. Louis, Mo.), 1% HEPES buffer (GIBCO) and 1% Penicillin-Stretomycin solution (GIBCO).
T-cells were further purified essentially by sheep erythrocyte (SRBC) rosetting as described by Morimoto et al., 1983, J. Immunol. 130:157. The isolated lymphocytes were adjusted to 2×10^7 cells/ml and 5 ml aliquots of the cell suspension were incubated for 10 minutes at room temperature with 5 ml of a 5% SRBC (Cappel, Organon Technika Corp., West Chester, Pa.) suspension. The cells were gently pelleted by centrifugation at 300 rpm for 10 minutes, followed by a 1 hour incubation at room temperature to allow rosette formation. The cells were gently resuspended,layered over Lymphoprep and centrifuged for 30 minutes at 500×g. The pellet, containing rosetted T-cells and SRBC was treated with ice cold buffered ammonium chloride (GIBCO) to lyse the erythrocytes. T-cells were washed twice with HBSS.
Purified T-cells were resuspended at 2×10^6 cells/ml in complete culture medium composed of RPMI-1640 (Whittaker Bioproducts, Walkerville, Md.) with 10% FBS (Sigma), 2 mM L-glutamine (GIBCO), 1% Penicillin-Streptomycin (GIBCO) and 15 mM HEPES (GIBCO). In 96-well plates (Becton Dickinson, Lincoln Park, N.J.), 0.1 ml aliquots of T-cell suspension were mixed with 0.05 ml of 40 μg/ml PHA-M (Sigma). The compounds of this invention were dissolved in dimethylsulfoxide at 10 mM and various dilutions in complete medium were added in duplicate wells (0.05 ml/well). The plates were incubated at 37° C. in a humidified atmosphere of 5% carbon dioxide and 95% air for 72 hours.
Proliferation was assessed by measurement of [^3 H]-thymidine incorporation. During the last 6 hours of incubation, the cells were pulse labelled with 1 μCi/well of [^3 H]-thymidine (New England Nuclear, Boston, Mass.). The cells were harvested onto glass fiber paper using a plate harvester and the radioactivity incorporated into cellular DNA corresponding to individual wells was measured by standard liquid scintillation counting methods.
A general note: Uptake of a labelled nucleoside into DNA is a usual measure of proliferation.

Test [2] has as its target FKBP (Homo sapiens, UniProt P62942). Kind of test: PPIase Inhibition Assay. The class given is biochemical. The method, then: 1) Inhibition of PPIase Activity
This assay follows in principle the procedure described in Kofron et al., 1991, Biochemistry 30:6127.
The three main reagents used are PPIase, a substrate for PPIase, and a selected inhibitor compound of the present invention. The basic principle behind this assay is the conversion of the cis isomer of the substrate to the trans form, which conversion is catalyzed by PPIase. Essentially, inhibition of this PPIase activity is measured for the selected compounds. A peptide chymotrypsin substrate containing a proline in the P2 position is only cleaved by chymotrypsin when the Phe-Pro bond is in the trans isomeric configuration. In the presence of excess chymotrypsin, all of the trans peptide isomers are cleaved within approximately five seconds, leaving only cis forms.
The cis peptide will spontaneously convert to the trans isomer at a slow rate. The cis to trans conversion is catalyzed by isomerases at a much faster rate than this spontaneous conversion. Proteins with PPIase activity are examples of such isomerases. After isomerization, the peptide is cleaved by chymotrypsin releasing p-nitroaniline which can be monitored at 390 nm. The rate of release is then calculated using a first order rate plus offset equation utilizing the ENZFITTER program (Leatherbarrow, BIOSOFT, Cambridge, United Kingdom).
In a plastic cuvette are added 950 ul of ice cold assay buffer (25 mM HEPES, pH 7.8, 100 mM NaCl), 10 uL of FKBP (2.5 uM in 10 mM Tris-Cl pH 7.5, 100 mM NaCl, 1 mM dithiothreitol), 25 ul of chymotrypsin (50 mg/ml in 1 mM HCl) and 10 ul of the test compound at various concentrations in dimethyl sulphoxide. The reaction is initiated by addition of 5 ul of substrate (Succinyl-Ala-Phe-Pro-Phe-para-nitroanilide, 5 mg/ml in 235 mM LiCl in trifluoroethanol).
The absorbance at 390 nm versus time is monitored for 90 sec using a Beckman DU70 spectrophotometer. The absorbance versus time data files are transferred to an IBM XT computer and the rate constants determined using the commercial enzfitter program. For each set of data, the uncatalyzed rate of conversion is measured and the uninhibited enzymatic rate determined. The data are expressed as % Activity remaining and are calculated as follows:
% Activity Remaining=(kobs -kuncat)/(kuninh
where kobs is the rate in the presence of a selected test compound, kuncat is the rate in the absence of enzyme, and kuninh is the rate in the presence of enzyme
Data was plotted as the velocity in the absence of the inhibitor (V-) divided by the velocity in the presence of inhibitor (V+) versus the inhibitor concentration. The IC50 can be determined following linear regression as the inhibitor concentration where

Test [3] has as its system NF-AT. Kind of test: NF-AT Inhibition Assay Directed β-Galactosidase Expression in FGL-5 cells. The class given is cell-based. The method, then:
3) NF-AT Assay Stimulation of T-cells leads to the appearance of several transcription factors, including one designated "NF-AT". These factors are involved in regulation of gene expression required for immunologic activation. Some of these transcription factors appear to have functions in a wide variety of cell types. By contrast, NF-AT is found primarily in T-cells and its role is restricted to early gene activation. […] Inhibition of NF-AT activity is measured using FGL-5 cells. FGL-5 is a cloned line of stably transfected Jurkat T-cells that contain two construct in which three tandem copies of the NF-AT DNA binding site direct transcription of both murine CD8 and the lacZ gene, encoding β-galactosidase ([…] et al., 1990, Genes & Development 4:1823). When these cells are stimulated with phorbol esters which activate protein kinase C and calcium ionophore to raise the intracellular calcium concentration, transcriptionally active NF-AT is produced. In T-cells, this normally leads to the expression of IL-2, T-cell growth factor. However, in FGL-5 cells NF-AT activation leads to the production of β-galactosidase which can be detected using an appropriate substrate. […] NF-AT Inhibition Assay Directed β-Galactosidase Expression This assay was performed essentially as described (Bierer et al., 1990, Proc. Natl. Acad. Sci. 87:9231). […] The assays were done with exponentially growing cells whose density was not greater than 0.5 million cells/ml. The cells were resuspended to 3 million cells/ml in medium and 0.1 ml was added to wells of a 96-well plate. The compounds of the present invention were dissolved in either ethanol or dimethylsulfoxide at 10 mM and […] of various dilutions in medium were added to cells in duplicate wells. Treatment controls consisted of duplicate wells containing 0.5 ml/well of either medium, ethanol or dimethylsulfoxide. The ethanol and dimethyl sulfoxide were at the same concentration as was used for the compounds. […] Phorbol dibutyrate (Sigma) and Ionomycin (Calbiochem) were dissolved at 50 μg/ml and 2 mM, respectively and stored at -70° C. […] For unstimulated cell controls, 0.5 ml/well of medium was added to duplicate wells. The plates were incubated overnight (16-18 hours) at 37° C. in a humidified atmosphere of 5% CO2 and air. β-galactosidase activity was measured as the fluorescence generated by the cleavage of 4-methyl umbelliferyl-β-D-galactoside (Sigma) at the β-galactoside bond. After overnight incubation, the cells were centrifuged at 500×g for 3 minutes in the 96-well plates and washed 3 times with PBS. […] The percent inhibition by each concentration of the compounds was calculated as: […]

Where [4] appears, read: concentration inhibiting [3H]-thymidine incorporation of PHA-stimulated T-cells by 50%, 72 hours, TABLE 2.
The mark [5] stands for this setting: concentration of inhibitor required for 50% inhibition of enzyme activity, FKBP, substrate Succinyl-Ala-Phe-Pro-Phe-para-nitroanilide, TABLE I.
[6] abbreviates: 50% inhibition of NF-AT directed β-galactosidase activity in FGL-5 cells stimulated with phorbol dibutyrate and ionomycin, TABLE 3.

We go through 13 molecules from patent US5686424A, “2-oxoethyl derivatives as immunosuppressants” (Miles Inc., priority 1995, dated 1997).

Where two headings read alike, the source gives them in different places. Some results are limits rather than exact numbers.

Chain of FKBP (P62942 whole entry): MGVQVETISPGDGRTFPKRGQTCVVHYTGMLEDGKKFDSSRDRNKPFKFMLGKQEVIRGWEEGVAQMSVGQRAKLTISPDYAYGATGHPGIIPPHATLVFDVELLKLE

Turning to `CC[C@H](C)[C@H](NC(=O)[C@@H]1CCCN1CC(=O)C1CCC2CCCC21)C(=O)NCc1ccccc1` (relative stereo) [Example 40], the IC50 (commonly the concentration needed to halve the response being measured) was 17 µM in test [1], below 5 µM in test [2] and 19 µM in test [3].
As for `CC[C@H](C)[C@H](NC(=O)[C@@H]1CCCCN1CC(=O)C12CC3CC(CC(C3)C1)C2)C(=O)NCc1ccccc1` [Example 36, L-Isoleucine, N-[1-(2-Adamantan-1-yl-2-Oxoethyl)-L-Homoproline] Benzylamide], the figures for the IC50 in test [1] (setting [4]), in test [2] (setting [5]) and in test [3] (setting [6]) were 20 µM, 2.2 µM and 13 µM, respectively.
For `CC[C@H](C)[C@H](NC(=O)[C@@H]1CCCN1CC(=O)c1ccco1)C(=O)NCc1ccccc1` [Example 37, L-Isoleucine, N-[1-(2-Furan-2-yl-2-Oxoethyl)-L-Prolyl] Benzylamide], the IC50 was above 100 µM in test [1], above 50 µM in test [2] and above 100 µM in test [3].
`CC[C@H](C)[C@H](NC(=O)[C@@H]1CCCN1CC(=O)N1CCC(Cc2ccccc2)CC1)C(=O)NCc1ccccc1` [Example 74, L-Isoleucine, N-[1-[2-(N-(4-Benzylpiperidyl))-2-Oxoethyl]-L-Prolyl] Benzylamide]: the values for the IC50 in test [1] (setting [4]) and in test [2] (setting [5]) were below 50 µM and below 5 µM, respectively.
For the molecule `CC[C@H](C)[C@H](NC(=O)[C@@H]1CCCN1CC(=O)N1CCCCC1C)C(=O)NCc1ccccc1` (stereo partly drawn) [Example 75, L-Isoleuclne, N-[1-[2-(2-Methylpiperidine)-2-Oxoethyl]-L-Prolyl] Benzylamide], the IC50 in test [1] (setting [4]) is 37 µM; in test [2] (setting [5]), below 5 µM.
The matching figures for `CC[C@H](C)[C@H](NC(=O)[C@@H]1CCCN1CC(=O)NCCO)C(=O)NCc1ccccc1` [Example 76, L-Isoleucine, N-[1-(2-(2-Hydroxyethylamine)-2-Oxoethyl)-L-Prolyl] Benzylamide]: above 50 µM and above 5 µM.
In the case of `CC[C@H](C)[C@H](NC(=O)[C@@H]1CCCN1CC(=O)N1CCN(c2ccccc2)CC1)C(=O)NCc1ccccc1` [Example 77, L-Isoleucine, N-[1-[2-(4-Phenylpiperazine)-2-Oxoethyl]-L-Prolyl] Benzylamlde], the IC50 was 28 µM in test [1] (setting [4]) and below 5 µM in test [2] (setting [5]).
For `CC[C@H](C)[C@H](NC(=O)[C@@H]1CCCN1CC(=O)N1CCCC1)C(=O)NCc1ccccc1` [Example 78, L-Isoleucine, N-[1-[2-(1-Pyrrolidine)-2-Oxoethyl]-L-Prolyl] Benzylamide] the same measures were 100 µM and above 5 µM.
On to `CC[C@H](C)[C@H](NC(=O)[C@@H]1CCCN1CC(=O)N1CCC(c2ccccc2)CC1)C(=O)NCc1ccccc1` [Example 82, L-Isoleucine, N-[1-(2-(4-Phenylpiperidyl)-2-Oxoethyl)-L-Prolyl] Benzylamide], for which the half-inhibitory concentration (IC50) is 20 µM in test [1] (setting [4]) and below 5 µM in test [2] (setting [5]).
For `CC[C@H](C)[C@H](NC(=O)[C@@H]1CCCCN1CC(=O)c1cc(OC)c(OC)c(OC)c1)C(=O)NCc1ccccc1` [Example 153, L-Isoleucine, N-[1-(2-(3,4,5-Trimethoxyphenyl)-2-Oxoethyl)-L-Homoprolyl] Benzylamide], the half-inhibitory concentration (IC50) in test [1] (setting [4]) and in test [3] (setting [6]) was above 15 µM throughout.
With “L-Isoleucine, N-[1-(2-(2-Methoxyphenyl)-2-Oxoethyl)-L-Prolyl] Benzylamide [Example 10]”, the IC50 in test [1] (setting [4]) and in test [2] (setting [5]) was below 50 µM throughout.
Turning to “L-Isoleucine, N-[1-(2-(Carbo-tert-Butoxy)-2-Oxoethyl)-L-Proline] Benzylamide [Example 25]”, the IC50 is 63 µM in test [1] (setting [4]) and 0.99 µM in test [2] (setting [5]).
For “L-Isoleuclne, N-[1-(2-(1-Methyl-Cyclohexyl)-2-Oxoethyl)-L-Prolyl] Benzylamide [Example 44]”, the IC50 in test [1] is 12 µM; in test [3] it was 24 µM.
